The values that follow come from patent US6656956B2, “Benzimidazole derivatives, processes for preparing them and their use as pharmaceutical compositions” (Boehringer Ingelheim Pharma KG, priority 2001, dated 2003).

The structures appear in SMILES notation. Where a name gives a salt, the structure may show the parent alone.

T1 sequence (Q15661 31-275): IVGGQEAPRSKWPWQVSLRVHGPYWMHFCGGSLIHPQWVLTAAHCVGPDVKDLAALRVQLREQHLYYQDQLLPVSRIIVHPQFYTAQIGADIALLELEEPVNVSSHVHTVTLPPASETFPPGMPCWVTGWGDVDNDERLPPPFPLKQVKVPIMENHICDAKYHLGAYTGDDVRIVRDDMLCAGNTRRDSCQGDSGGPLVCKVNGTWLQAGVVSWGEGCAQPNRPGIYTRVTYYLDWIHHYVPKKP

This test concerns the target T1, rh beta tryptase (Homo sapiens, UniProt Q15661).
T1 construct: purchased Promega
The experiment in a line: tryptase inhibition in vitro test (cleavage of N-p-tosyl-Gly-Pro-Lys-para-nitroaniline, p-nitroaniline measured at 405 nm). The class given is biochemical. The following applies: rh beta tryptase 0.91 U/ml, substrate 0.6 mM, Tris HCl buffer with calcium and heparin, pH 7.4, 37° C., 5 minutes incubation; read-out: Tryptase-inhibiting activity. The method, then: The compounds according to the invention are characterised by their tryptase-inhibiting activity. This ability to inhibit tryptase was investigated using the test described below.
The measurement is carried out in Tris HCl buffer (100 mM), which additionally contains calcium (5 mM) and heparin ([…]), at pH 7.4. The standard used is rh beta tryptase which may be obtained commercially from Promega, for example. The substrate used is N-p-tosyl-Gly-Pro-Lys-para-nitroaniline in a concentration of 0.6 mM. The substrate is digested with tryptase to form p-nitroaniline which can be measured at 405 nm. Usually, an incubation period of 5 minutes and an incubation temperature of 37° C. are chosen. The enzyme activity used is 0.91 U/ml. The measurements are carried out in an Autoanalyser (Cobas Bio) made by Hofmann LaRoche. The potential inhibitory substances are used in concentrations of 10 μM in the screening, the inhibition of the tryptase being given in percent. The IC50 is determined at over 70% inhibition (concentration at which 50% of the enzyme activity is inhibited). After 5 minutes' pre-incubation of the potential inhibitory substances, the substrate is added to start the reaction, the formation of p-nitroaniline being taken as a measurement of the enzyme activity after 5 minutes, after testing the linearity.
For the compound `Cn1c(CCc2ccc(C(=N)N)cc2)nc2cc(N(Cc3cccc4ccccc34)C(=O)CN3CCC(Nc4ccccc4)CC3)ccc21` [Example 1, N-{2-[2-(4-Amidinophenyl)-ethyl]-1-methyl-benzimidazol-5-yl}-N-[naphth-1-ylmethyl]-2-(4-phenylamino-piperid-1-yl)-acetamide, Dihydrochloride], the IC50 was in the range of 4 to 30 nM.

For the compound `CN(CCCO)C1CCN(CC(=O)N(Cc2cccc3ccccc23)c2ccc3c(c2)nc(CCc2ccc(C(=N)N)cc2)n3C)CC1` [Example 2, N-{2-[2-(4-Amidinophenyl)-ethyl]-1-methyl-benzimidazol-5-yl}-N-[naphth-1-ylmethyl]-2-{4-[N-methyl-N-(3-hydroxypropyl)-amino]-piperid-1-yl}-acetamide, Trihydrochloride], the IC50 was 4 to 30 nM.

Take `Cn1c(CCc2ccc(C(=N)N)cc2)nc2cc(N(Cc3ccc(C(C)(C)C)cc3)C(=O)CN3CCC(Nc4ccccn4)CC3)ccc21` [Example 3, N-{2-[2-(4-Amidinophenyl)-ethyl]-1-methyl-benzimidazol-5-yl}-N-(4-tert-butylphenylmethyl)-2-[4-(2-pyridylamino)-piperid-1-yl]-acetamide, Dihydrochloride]: the IC50 lay within 4 to 30 nM.

For `Cn1c(CCc2ccc(C(=N)N)cc2)nc2cc(N(Cc3cccc4ccccc34)C(=O)NCc3ccccc3)ccc21` [Example 5, N-{2-[2-(4-Amidinophenyl)-ethyl]-1-methyl-benzimidazol-5-yl}-N-(naphth-1-ylmethyl)-N′-benzyl-urea, Hydrochloride], the IC50 was in the range of 31 to 1000 nM.

Consider `Cn1c(CCc2ccc(C(=N)N)cc2)nc2cc(N(Cc3cccc4ccccc34)C(=O)CN3CCC(Nc4ccccn4)CC3)ccc21` [Example 6, N-{2-[2-(4-Amidinophenyl)-ethyl]-1-methyl-benzimidazol-5-yl}-N-[naphth-1-ylmethyl]-2-[4-(2-pyridylamino-piperid-1-yl]-acetamide, dihydrochloride], for which the IC50 fell in the range of 0.5 to 3 nM.

Take `Cn1c(CCc2ccc(C(=N)N)cc2)nc2cc(N(Cc3cccc4ccccc34)C(=O)CN3CCC(NC(=O)c4ccccn4)CC3)ccc21` [Example 7, N-{2-[2-(4-Amidinophenyl)-ethyl]-1-methyl-benzimidazol-5-yl}-N-[naphth-1-ylmethyl]-2-[4-(2-pyridylcarboxylic acid amide)-piperid-1-yl]-acetamide, dihydrochloride]: the IC50 was in the range of 4 to 30 nM.

For `Cn1c(CCc2ccc(C(=N)N)cc2)nc2cc(N(Cc3cccc4ccccc34)C(=O)CN3CCC(NC(=O)c4ccccc4)CC3)ccc21` [Example 8, N-{2-[2-(4-Amidinophenyl)-ethyl]-1-methyl-benzimidazol-5-yl}-N-[naphth-1-ylmethyl]-2-[4-benzoic acid amide-piperid-1-yl]-acetamide, dihydrochloride], the IC50 was in the range of 4 to 30 nM.

Turning to `Cn1c(CCc2ccc(C(=N)N)cc2)nc2cc(N(Cc3cccc4ccccc34)C(=O)CN3CCC(Cc4ccccc4)CC3)ccc21` [Example 9, N-{2-[2-(4-Amidinophenyl)-ethyl]-1-methyl-benzimidazol-5-yl}-N-[naphth-1-ylmethyl]-2-[4-(benzyl)-piperid-1-yl]-acetamide, dihydrochloride], the IC50 fell in the range of 4 to 30 nM.

Regarding `Cn1c(CCc2ccc(C(=N)N)cc2)nc2cc(N(Cc3cccc4ccccc34)C(=O)CN3CCC(Nc4ccc(Cl)cc4)CC3)ccc21` [Example 10, N-{2-[2-(4-Amidinophenyl)-ethyl]-1-methyl-benzimidazol-5-yl}-N-[naphth-1-ylmethyl]-2-[4-(4-chlorophenylamino)-piperid-1-yl]-acetamide, dihydrochloride], the IC50 was 0.5 to 3 nM.

In the case of `Cn1c(CCc2ccc(C(=N)N)cc2)nc2cc(N(Cc3cccc4ccccc34)C(=O)CN3CCC(Nc4cccc(Cl)c4)CC3)ccc21` [Example 11, N-{2-[2-(4-Amidinophenyl)-ethyl]-1-methyl-benzimidazol-5-yl}-N-[naphth-1-ylmethyl]-2-[4-(3-chlorophenylamino)-piperid-1-yl]-acetamide, dihydrochloride], the IC50 was in the range of 0.5 to 3 nM.

For the compound `Cn1c(CCc2ccc(C(=N)N)cc2)nc2cc(N(Cc3cccc4ccccc34)C(=O)CN3CCC(Nc4ccccc4Cl)CC3)ccc21` [Example 12, N-{2-[2-(4-Amidinophenyl)-ethyl]-1-methyl-benzimidazol-5-yl}-N-[naphth-1-ylmethyl]-2-[4-(2-chlorophenylamino)-piperid-1-yl]-acetamide, dihydrochloride], the IC50 was 0.5 to 3 nM.

For `CN(C)c1ccc(NC2CCN(CC(=O)N(Cc3cccc4ccccc34)c3ccc4c(c3)nc(CCc3ccc(C(=N)N)cc3)n4C)CC2)cc1` [Example 13, N-{2-[2-(4-Amidinophenyl)-ethyl]-1-methyl-benzimidazol-5-yl}-N-[naphth-1-ylmethyl]-2-[4-(4-dimethylaminophenyl-amino)-piperid-1-yl]-acetamide, trihydrochloride], the IC50 lay in the range of 4 to 30 nM.

Consider `COc1ccc(NC2CCN(CC(=O)N(Cc3cccc4ccccc34)c3ccc4c(c3)nc(CCc3ccc(C(=N)N)cc3)n4C)CC2)cc1` [Example 14, N-{2-[2-(4-Amidinophenyl)-ethyl]-1-methyl-benzimidazol-5-yl}-N-[naphth-1-ylmethyl]-2-[4-(4-methoxyphenylamino)-piperid-1-yl]-acetamide, dihydrochloride], for which the IC50 lay in the range of 4 to 30 nM.

In the case of `Cn1c(CCc2ccc(C(=N)N)cc2)nc2cc(N(Cc3cccc4ccccc34)C(=O)CN3CCC(N)CC3)ccc21` [Example 15, N-{2-[2-(4-Amidinophenyl)-ethyl]-1-methyl-benzimidazol-5-yl}-N-[naphth-1-ylmethyl]-2-[4-amino-piperid-1-yl]-acetamide, trihydrochloride], the IC50 fell in the range of 4 to 30 nM.

Consider `Cn1c(CCc2ccc(C(=N)N)cc2)nc2cc(N(Cc3cccc4ccccc34)C(=O)CN3CCC(Oc4ccccn4)CC3)ccc21` [Example 16, N-{2-[2-(4-Amidinophenyl)-ethyl]-1-methyl-benzimidazol-5-yl}-N-[naphth-1-ylmethyl]-2-[4-(2-pyridinoxy)-piperid-1-yl]-acetamide, dihydrochloride], for which the IC50 is 4 to 30 nM.

With `Cn1c(CCc2ccc(C(=N)N)cc2)nc2cc(N(Cc3cccc4ccccc34)C(=O)CN3CCC(Nc4ccc(OCc5ccccc5)cc4)CC3)ccc21` [Example 17, N-{2-[2-(4-Amidinophenyl)-ethyl]-1-methyl-benzimidazol-5-yl}-N-[naphth-1-ylmethyl]-2-[4-(4-benzyloxy-phenylamino)-piperid-1-yl]-acetamide, dihydrochloride], the IC50 lay in the range of 4 to 30 nM.

For `Cn1c(CCc2ccc(C(=N)N)cc2)nc2cc(N(Cc3cccc4ccccc34)C(=O)CN3CCC(Nc4ccc(O)cc4)CC3)ccc21` [Example 18, N-{2-[2-(4-Amidinophenyl)-ethyl]-1-methyl-benzimidazol-5-yl}-N-[naphth-1-ylmethyl]-2-[4-(4-hydroxyphenylamino)-piperid-1-yl]-acetamide, dihydrochloride], the IC50 was 4 to 30 nM.

On to `CN(c1ccccn1)C1CCN(CC(=O)N(Cc2cccc3ccccc23)c2ccc3c(c2)nc(CCc2ccc(C(=N)N)cc2)n3C)CC1` [Example 19, N-{2-[2-(4-Amidinophenyl)-ethyl]-1-methyl-benzimidazol-5-yl}-N-[naphth-1-ylmethyl]-2-[4-(2-pyridyl-N-methyl-amino)-piperid-1-yl]-acetamide, dihydrochloride], for which the IC50 lay within 4 to 30 nM.

In the case of `Cn1c(CCc2ccc(C(=N)N)cc2)nc2cc(N(Cc3cccc4ccccc34)C(=O)CN3CCC(Cc4ccccn4)CC3)ccc21` [Example 20, N-{2-[2-(4-Amidinophenyl)-ethyl]-1-methyl-benzimidazol-5-yl}-N-[naphth-1-ylmethyl]-2-[4-(2-pyridylmethyl)-piperid-1-yl]-acetamide, dihydrochloride], the IC50 fell in the range of 4 to 30 nM.

As to `CCOC(=O)CCN(C)C1CCN(CC(=O)N(Cc2cccc3ccccc23)c2ccc3c(c2)nc(CCc2ccc(C(=N)N)cc2)n3C)CC1` [Example 21, N-{2-[2-(4-Amidinophenyl)-ethyl]-1-methyl-benzimidazol-5-yl}-N-[naphth-1-ylmethyl]-2-[4-(ethyl N-methyl-N-propionate)-piperid-1-yl]-acetamide, trihydrochloride], the IC50 is 4 to 30 nM.

`Cn1c(CCc2ccc(C(=N)N)cc2)nc2cc(N(Cc3cccc4ccccc34)C(=O)CN3CCC(Nc4ccc5ccccc5c4)CC3)ccc21` [Example 22, N-{2-[2-(4-Amidinophenyl)-ethyl]-1-methyl-benzimidazol-5-yl}-N-[naphth-1-ylmethyl]-2-[4-(2-naphthylamino)-piperid-1-yl]-acetamide, dihydrochloride]: the IC50 is 0.5 to 3 nM.

`Cn1c(CCc2ccc(C(=N)N)cc2)nc2cc(N(Cc3cccc4ccccc34)C(=O)CN3CCC(Nc4ccc(-c5ccccc5)cc4)CC3)ccc21` [Example 23, N-{2-[2-(4-Amidinophenyl)-ethyl]-1-methyl-benzimidazol-5-yl}-N-[naphth-1-ylmethyl]-2-[4-(4-biphenylamino)-piperid-1-yl]-acetamide, dihydrochloride]: the IC50 fell in the range of 4 to 30 nM.

On to `Cn1c(CCc2ccc(C(=N)N)cc2)nc2cc(N(Cc3cccc4ccccc34)C(=O)CN3CCC(C(=O)c4ccccc4)CC3)ccc21` [Example 24, N-{2-[2-(4-Amidinophenyl)-ethyl]-1-methyl-benzimidazol-5-yl}-N-[naphth-1-ylmethyl]-2-[4-(phenylcarbonyl)-piperid-1-yl]-acetamide, dihydrochloride], for which the IC50 was in the range of 0.5 to 3 nM.
